# Tested on: LLC (Lewis Lung Cancer) tumor
# Assay: Antitumor experiment in LLC mouse model (subcutaneous xenograft LLC tumor)
# Type: in vivo, C57BL/6 mice
# Settings: i.g.; for TV (mm^3) on day 0 Mean ± SD: day 0 (grouping, before dosing from day 1); for TGI (%): from tumor weight on day 15 vs control group
# Procedure: In Example 1, the TLR7 agonist was
# [drawing 58] and anlotinib was anlotinib dihydrochloride.
# LLC (Lewis Lung Cancer) Mice: subcutaneously grafted tumor cells of lung cancer (concentration: 2×10^6/mL×0.2 mL/mouse) were inoculated into C57BL/6 mice at the right side armpit (the site to be inoculated was shaved before inoculating) in a sterile environment, and passaged using a block insertion method. The C57BL/6 mice were female and 16-18 g in weight, and the breeding environment was SPF level. The diameter of the C57BL/6 xenograft tumor was measured using a vernier caliper, and the animals were randomly divided into five groups when the tumors grew to 100-300 mm^3: • i. Control group (blank control); • ii. Monotherapy group: anlotinib 5 mg/kg/d (positive control), with normal saline as a vehicle; • iii. Monotherapy group: TLR7 agonist 20 mg/kg, t.i.w., with ethanol/Tween 80 (v:v=1:1) as a vehicle; • iv. Monotherapy group: anlotinib 1 mg/kg/d, with normal saline as a vehicle; and • v. Combination therapy group: TLR7 agonist 20 mg/kg, t.i.w., and anlotinib 1 mg/kg/d.
# The mice in the control group and monotherapy groups were administered in a volume of 10 mL/kg, and the mice in the combination therapy group were administered with two drugs simultaneously, each in a volume of 10 mL/kg. Weights and diameter of the tumor were measured every three days, and the behavior of mice was observed daily.
# Mice were divided into groups on day 0, with 12 in the control group and 6 in each of the remaining groups. The drugs were administered intragastrically (i.g.) from day 1. The treatment was discontinued on day 12. During the experiment, the tumor volume was measured on days 0, 3, 6, 9, 12 and 15, and the tumors were removed and weighed on day 15, i.e., at the end of experiment.
# The tumor volume and the tumor growth inhibition were calculated using the following formulae: Tumor volume (TV)=(L×W^2)/2. Tumor growth inhibition (TGI)=(1−tumor weight in the treatment group/tumor weight in the control group)×100%.
compound,measurement,setting,value
"COc1cc2c(Oc3ccc4[nH]c(C)cc4c3F)ccnc2cc1OCC1(N)CC1 [Anlotinib, 1-[[[4-(4-fluoro-2-methyl-1H-indol-5-yl)oxy-6-methoxyquinolin-7-yl]oxy]methyl]cyclopropylamine]",TV (mm^3) on day 0 Mean ± SD,anlotinib 1 mg/kg/d × 11 d,213.25 ± 39.34 mm^3
same,TV (mm^3) on day 12 Mean ± SD,anlotinib 1 mg/kg/d × 11 d,2697.21 ± 747.99 mm^3
same,TV (mm^3) on day 15 Mean ± SD,anlotinib 1 mg/kg/d × 11 d,4114.08 ± 1213.40 mm^3
same,TGI (%),anlotinib 1 mg/kg/d × 11 d,13.5%
same,TV (mm^3) on day 0 Mean ± SD,"anlotinib 5 mg/kg/d × 11 d, female C57BL/6 mice with LLC tumor",213.47 ± 38.16 mm^3
same,TV (mm^3) on day 12 Mean ± SD,anlotinib 5 mg/kg/d × 11 d,1393.38 ± 532.59 mm^3
same,TV (mm^3) on day 15 Mean ± SD,anlotinib 5 mg/kg/d × 11 d,1811.75 ± 736.45 mm^3
same,TGI (%),anlotinib 5 mg/kg/d × 11 d,63.4%
CCCCOc1nc(N)c2[nH]cc(Cc3ccc(CN4CCCC4)cc3)c2n1 [TLR7 agonist],TV (mm^3) on day 0 Mean ± SD,"TLR7 agonist 20 mg/kg, t.i.w.",212.98 ± 47.17 mm^3
same,TV (mm^3) on day 12 Mean ± SD,"TLR7 agonist 20 mg/kg, t.i.w.",2353.68 ± 663.83 mm^3
same,TV (mm^3) on day 15 Mean ± SD,"TLR7 agonist 20 mg/kg, t.i.w.",3257.62 ± 577.45 mm^3
same,TGI (%),"TLR7 agonist 20 mg/kg, t.i.w.",30.1%
same,growth of LLC tumor (result in words),"TLR7 agonist alone, 20 mg/kg, t.i.w., summary of Table 1",can inhibit the growth of LLC tumor
